In series [1] the target is T1, D(3) dopamine receptor (Homo sapiens, UniProt P35462). The series is described as follows: Agonist activity at human D3 receptor stably expressed in HEK293T cells co-expressing ElucN-betaarr2 hD3R-ElucC by beta-arrestin2 recruitment assay. The series is classed as functional, cell-based. On the technique in general: Activated receptors often draw arrestin, which recruitment assays turn into a signal.

The target in series [2] is T2, D(4) dopamine receptor (Homo sapiens, UniProt P21917).
T2 sequence (P21917 whole entry): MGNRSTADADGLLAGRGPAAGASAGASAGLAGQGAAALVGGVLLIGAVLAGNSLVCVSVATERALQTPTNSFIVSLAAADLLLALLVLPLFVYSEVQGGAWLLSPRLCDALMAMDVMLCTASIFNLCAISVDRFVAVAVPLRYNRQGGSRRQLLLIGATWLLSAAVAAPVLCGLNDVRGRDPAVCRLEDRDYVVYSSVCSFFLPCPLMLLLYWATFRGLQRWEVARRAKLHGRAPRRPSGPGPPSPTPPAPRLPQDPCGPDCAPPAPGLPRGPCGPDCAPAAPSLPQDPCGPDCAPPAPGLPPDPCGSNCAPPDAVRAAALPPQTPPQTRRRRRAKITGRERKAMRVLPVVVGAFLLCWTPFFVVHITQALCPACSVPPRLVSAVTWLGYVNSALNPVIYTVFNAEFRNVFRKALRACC
The series is described as follows: Displacement of [3H]N-methylspiperone from human D4.4 receptor stably expressed in HEK293T cells co-expressing ElucN-betaarr2 hD4.4R-ELuc incubated for 60 mins by scintillation counting analysis. The series is classed as cell-based. On the technique in general: Displacement assays read how much labelled ligand stays bound in the presence of the test substance.

Series [3] has as its target T1, D(3) dopamine receptor. The series can be described thus: Displacement of [3H]N-methylspiperone from human D3 receptor stably expressed in HEK293T cells co-expressing luciferase and CEK incubated for 140 mins by radioligand competition binding based assay. In kind it is cell-based.
Series [4] has as its target T3, Histamine H2 receptor (Homo sapiens, UniProt P25021). The series can be described thus: Agonist activity at human histamine H2 receptor stably expressed in HEK293T cells co-expressing NlucN-mGs/hH2R-NlucC assessed as induction of mini-Gs protein recruitment using furimazine as substrate measured for 45 mins by luminescence assay.
For series [5], the target named is Histamine H2 receptor (Cavia porcellus) (UniProt P47747). The series is described as follows: Agonist activity at guinea pig histamine H2 receptor stably transfected in HEK293T cells co-expressing NlucN-mGs/gpH2R-NlucC assessed as maximum efficacy at 100 uM by mini-G protein recruitment assay relative to histamine. In kind it is functional, cell-based.
Series [6] has as its target T3, Histamine H2 receptor. The series is described as follows: Agonist activity at human histamine H2 receptor stably expressed in HEK293T cells co-expressing ARRB2 incubated for 60 mins by beta-arrestin2 recruitment assay. In kind it is functional, cell-based.
Series [7] deals with T3, Histamine H2 receptor. The series is described as follows: Displacement of [3H]UR-DE257 from human histamine H2 receptor stably expressed in baculovirus infected Sf9 cell membrane co-expressing RG-Salpha S incubated for 60 mins by scintillation counting analysis. The series is classed as cell membranes.
Series [8] concerns the target Histamine H2 receptor (Cavia porcellus) (UniProt P47747). The series can be described thus: Agonist activity at histamine H2 receptor in spontaneous beating guinea pig right atrium assessed as increase in heart beat at 30 uM relative to histamine. In kind it is functional, tissue-based. The settings on record: Right cardiac atrium.
Series [9] in a line: Chemical stability in pH 7.4 buffer measured at 0 to 2 weeks by HPLC analysis. In kind it is physicochemical. The settings on record: time 0-2 weeks.
The target in series [10] is T3, Histamine H2 receptor. The series can be described thus: Agonist activity at human histamine H2 receptor stably expressed in baculovirus infected Sf9 cell membrane co-expressing RG-Salpha S incubated for 90 mins by [35S]GTPgammaS binding based liquid scintillation counting method. The series is classed as functional, cell membranes. In general terms: Binding of GTPγS marks nucleotide exchange on a G protein.

T1 sequence (P35462 whole entry): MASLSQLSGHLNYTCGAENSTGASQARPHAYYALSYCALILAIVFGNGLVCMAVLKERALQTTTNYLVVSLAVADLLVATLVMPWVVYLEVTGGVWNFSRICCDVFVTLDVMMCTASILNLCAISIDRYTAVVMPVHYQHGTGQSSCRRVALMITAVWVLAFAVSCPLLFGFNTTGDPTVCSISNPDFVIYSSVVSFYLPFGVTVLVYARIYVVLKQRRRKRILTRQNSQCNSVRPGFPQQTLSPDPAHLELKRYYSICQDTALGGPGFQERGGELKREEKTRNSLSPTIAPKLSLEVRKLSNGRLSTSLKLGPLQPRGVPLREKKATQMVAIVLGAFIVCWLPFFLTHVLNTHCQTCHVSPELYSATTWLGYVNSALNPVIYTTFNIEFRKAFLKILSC
T3 sequence (P25021 whole entry): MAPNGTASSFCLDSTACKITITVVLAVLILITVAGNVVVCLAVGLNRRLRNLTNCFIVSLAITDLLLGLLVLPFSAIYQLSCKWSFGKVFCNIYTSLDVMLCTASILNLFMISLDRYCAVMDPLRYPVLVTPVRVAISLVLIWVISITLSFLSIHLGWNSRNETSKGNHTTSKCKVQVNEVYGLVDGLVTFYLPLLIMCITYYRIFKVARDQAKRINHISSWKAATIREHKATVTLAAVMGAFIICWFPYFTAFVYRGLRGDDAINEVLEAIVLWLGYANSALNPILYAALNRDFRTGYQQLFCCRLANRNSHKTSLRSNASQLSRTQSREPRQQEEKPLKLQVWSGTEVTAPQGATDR
Chain of Histamine H2 receptor (Cavia porcellus) (P47747 whole entry): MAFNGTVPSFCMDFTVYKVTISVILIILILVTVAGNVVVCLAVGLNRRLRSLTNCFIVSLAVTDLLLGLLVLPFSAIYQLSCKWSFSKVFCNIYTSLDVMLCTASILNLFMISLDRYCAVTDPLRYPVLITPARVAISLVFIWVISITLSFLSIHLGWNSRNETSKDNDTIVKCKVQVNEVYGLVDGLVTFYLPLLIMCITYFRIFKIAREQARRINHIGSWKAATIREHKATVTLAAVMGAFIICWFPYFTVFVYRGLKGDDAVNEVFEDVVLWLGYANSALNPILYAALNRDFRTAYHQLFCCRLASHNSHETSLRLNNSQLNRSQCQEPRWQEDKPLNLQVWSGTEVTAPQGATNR

The term EC50 denotes the concentration giving half of the maximal effect. A word on the Kd: it is the equilibrium constant for the complex coming apart. Low values mean higher affinity, high ones lower affinity. As usually defined, the pKi is the negative decadic logarithm of the Ki, by convention in mol/L. A higher pKi goes with a low Ki. As usually defined, the Ki is the equilibrium dissociation constant of an inhibitor or competing ligand from its target. Lower therefore signals tighter binding. A word on the Emax: it is the maximal effect, on the per cent scale that the assay sets. `C[C@@H](NC(=O)/N=C(\N)NCCCc1ncn[nH]1)c1ccccc1`: the EC50 in series [1] was > 10000 nM; in series [4] it was 25.7 nM; in series [6], 324 nM. This molecule also registered a Kd in [2] of 0.078 nM. In series [2], this molecule displayed a pKi of 5.18. Moreover, the Ki in series [3] was > 10000 nM; in series [7], 53.7 nM. Further, the Emax was determined as 86% in [5] and 115% in series [8].

`CCCCCNC(=O)/N=C(\N)NCCCc1nnc(N)s1.O=C(O)C(F)(F)F.O=C(O)C(F)(F)F`: in series [2], the Kd was 0.078 nM. The molecule also showed a pKi in [2] of 5.65. Moreover, in series [9], the Stability result was “Stable”. Besides, the EC50 was 5.75 nM in series [4], 234 nM in [6] and 25.7 nM in [10]. For the same molecule, in series [7], the Ki was 3.02 nM.

With `N/C(=N\C(=O)NCc1ccccc1)NCCCc1nnc(N)s1`, it took 1200 nM to reach a half-maximal effect in series [1] (EC50). In series [2], this molecule registered a dissociation constant Kd of 0.078 nM and a pKi of 6.17. Besides, the affinity in series [3], expressed as Ki, was 2630 nM.

As for `CCCCCNC(=O)/N=C(\N)NCCCc1sc(N)nc1C`, in series [2], the Kd turned out to be 0.078 nM and the pKi was 6.96.
